Patent US4276890A, “Tobacco smoking inhibitor” (priority 1979, dated 1981)

Assays:
[1] = cited from earlier work
[2] = cited from earlier work; remark: listed apart in the source
[3] = system: spontaneous motor activity; settings: mice, 75 mg/kg; cited from earlier work
[4] = system: convulsions produced by pentylenetetrazole or strychnine; settings: 300 to 500 mg per kg; cited from earlier work
rat brain cortex slices = settings: in vitro; cited from earlier work
[5] = system: rate of weight gain in animals; settings: animal feeds, up to 200 grams per ton; cited from earlier work
mice = settings: cited from earlier work
[6] = system: hexobarbital-induced sleeping time; settings: 300 to 500 mg per kg; cited from earlier work
[7] = system: tobacco consumption of habitual smokers; test: General observations of treatment on tobacco consumption and subjective effects; type: in vivo, human (test subjects
Source text: In a preferred embodiment, finely divided ethyl maltol is distributed in a chewing gum base, which when chewed by the subject, results in a gradual release of ethyl maltol into the oral cavity. When administered in appropriate amounts over a period of several days, there results a gradual decrease in the number of cigarettes smoked and the length of time they are smoked. […] Reductions in the frequency and quantity of smoking have been observed in test subjects who were unaware that their smoking behavior was monitored. […] Subjectively, test subjects experience a reduced desired to smoke, tend to neglect the opportunities to light up a cigarette and tend to leave cigarettes unsmoked in the ashtray after a few puffs. The effect is sufficiently subtle that a smoker is sometimes unaware that their tobacco consumption rate was decreased until such point as the lowered consumption rate becomes obvious. For smokers sincerely desiring to reduce or eliminate their smoking, the effect of the treatment is most gratifying. However, for smokers who are not psychologically committed to giving up smoking, the effects may be alarming. It is of course, possible to override the effects of the treatment by conscious effort to smoke at the pre-treatment rate.
Smoking behavior is complex and includes cigarette, pipe and cigar smoking. Both from the standpoint of habituation and of health hazard, cigarette smoking is considered to be the most serious. It is contemplated that the treatment method described herein will be effective to inhibit all forms of smoking behavior and combinations thereof, involving the consumption of tobacco. For convenience, the ensuing discussion focuses on cigarette smoking, as exemplary of smoking behavior in general. Tobacco consumption is a function the number of cigarettes smoked and the proportion of each cigarette smoked. Reduction of consumption is measured by comparison with a smoker's pretreatment consumption rate. All data used herein are expressed as percent reduction, i.e., the differential between pretreatment and current smoking consumption rate divided by the pretreatment rate, times 100. All rates are calculated to take into account both the number of cigarettes smoked and the proportion of each smoked.
Duration of treatment may be as little as ten days, preferably 20 to 30 days. As might be expected with a complex behavior such as smoking, where psychological and social factors play a major role in addition to individual variations in nicotine susceptibility and responsiveness to gamma pyrone, the rate of smoking reduction during treatment is highly variable. Typically, a gradual reduction to about 50% to the pretreatment rate is observed over the first four to six days. Frequently, little or no reduction is observed for the first two days, although occasionally a dramatic reduction is observed almost immediately. In the ensuing seven to ten days, further reductions, typically 70 to 100%, are observed. Reduction below the 50% level in the first 3-5 days is sometimes accompanied by the physiological (but not psychological) symptoms of nicotine withdrawl, such as vertigo, alimentary distress, diuresis, scotoma and disorientation. Such symptoms have never been observed in non-smoking control subjects using the same gamma pyrone dosages. […] The entire course of treatment is therefore extended somewhat, preferably to about 20 to 30 days total. […]

smoking behavior = settings: cited from earlier work

Row | Compound | consumption per day ([1]; as much as 1.5 grams per day) | safe average daily intake ([1]; per day) [mg per kg] | absorption ([2]; after oral administration) | excretion ([2]; after oral administration) | form of excretion ([2]; after oral administration) | metabolism and excretion ([2]; in vivo) | spontaneous motor activity, decrease [3] | convulsions produced by pentylenetetrazole or strychnine [4] | oxygen intake by rat brain cortex slices (rat brain cortex slices) | rate of weight gain [5] | acute LD50 (mice) [mg per kg] | hexobarbital-induced sleeping time [6] | tobacco consumption of habitual smokers ([7]; appropriate dosage levels and rates) | minimum effective dose relative to ethyl maltol ([7]; in vivo) [times greater] | effectiveness versus placebo for smoking (smoking behavior; controlled double blind tests) | pharmacological action (smoking behavior; in vivo) | withdrawal syndrome on discontinuation (smoking behavior; in vivo)
1 | Cc1occc(=O)c1O [maltol, 3-hydroxy-2-methyl-4-pyrone] | completely harmless | 1 | rapidly absorbed | rapidly excreted | primarily as glucuronide and ethereal sulfate conjugates | rapidly metabolized and excreted | approximately 50% | inhibited convulsions | not affected | improves the rate of weight gain | 820 | potentiating hexobarbital-induced sleeping time | significantly reduces the tobacco consumption of habitual smokers | 4 to 6 | – | – | –
2 | CN1[C@@H](CC(=O)c2ccccc2)CCC[C@H]1C[C@H](O)c1ccccc1 [lobeline] | – | – | – | – | – | – | – | – | – | – | – | – | – | – | ineffective, i.e., no more effective than placebos | weak nicotine-like action | apparently discontinuable without a withdrawal syndrome
